Measurements from patent publication US10905704B2, “Agents and methods using thereof for the prevention and treatment of stem cell muscle disorders” (ECOLE POLYTECHNIQUE FEDERALE DE LAUSANNE (EPFL), priority 2015, dated 2021).

Legend:
[1] = test system: muscle stem cells (MuSCs); assay: MuSC numbers in muscle of NR-fed young and aged mice (FACS, PAX7 staining); format: in vivo, C57BL/6J mice; conditions: for MuSC numbers (FACS): NR 400 mg/kg/day in diet for 6 weeks, FIG. 3A-C
Protocol: Animals. Young (1 month old) and aged (20-24 months old) C57BL/6JRj mice, purchased from Janvier Labs, and five weeks old male C57BL/10SnJ mice or C57BL/10ScSn-Dmdmdx/J, purchased from The Jackson Laboratory, were fed with pellets containing vehicle or NR (400 mg/kg/day) for 6-8 weeks. The pellets were prepared by mixing powdered chow diet (D12450B, Research Diets Inc.) with water or with NR dissolved in water. Pellets were dried under a laminar flow hood for 48 hours. All mice were housed in micro-isolator cages in a room illuminated from 7:00 am -7:00 pm with ad libitum access to diet and water. FACS based muscle stem cell isolation. Gastrocnemius, soleus, quadriceps, and tibialis anterior muscles from both limbs were excised and transferred into PBS on ice. All muscles were trimmed, minced and digested with 0.1 mg/ml of type II collagenase (Sigma) in PBS for 15 min at 37° C. Samples were then centrifuged at 750 g for 5 min and further digested in 1 mg/ml of collagenase/dispase (Roche) for 30 mins at 37° C. Muscle slurries were sequentially filtered through 100, 70 and 40 μm cell strainers. The isolated cells were then washed in washing buffer (PBS+2.5% FBS) then resuspended in 200 μl of washing buffer and immediately stained with antibodies, including the MuSC markers CD31 (1:800, eBioscience, eFluor450 conjugated); CD34 (1:200, eBioscience, eFluor660 conjugated); CD45 (1:200, eBioscience, eFluor450 conjugated); CD11b (1:400, eBioscience, eFluor450 conjugated); Sca-1 (1:1000, eBioscience, PE-Cy7 conjugated); and α7 integrin (1:300, MBL) for 30 min at 4° C. Secondary staining was performed with a mixture of goat anti-mouse antibody (1:800, Life technologies, Alexa Fluor 488 conjugated) and propidium Iodide (PI, Sigma) for 15 min at 4° C. in the dark. Stained cells were analysed and sorted using the FACSAria II instrument (BD Biosciences). Debris and dead cells were excluded by forward scatter, side scatter and PI gating. Cells were sorted either directly on slides for immunostaining and into TriPure (Roche) reagent for RNA extraction. Histology. […]

Endurance running test = format: in vivo, C57BL/6J mice; conditions: aged mice, NR diet
Protocol: Endurance running test. Mice were fasted 2 hours before running on a treadmill. The exercise regimen commenced at a speed of 9 cm/s with an inclination of 5 degrees. […] Mice were considered to be exhausted, and removed from the treadmill, following the accumulation of 5 or more shocks (0.1 mA) per minute for two consecutive minutes. The distance traveled and time before exhaustion is registered as maximal running distance and period.

MuSCs [2] = assay: Myogenesis (colony formation) assay; format: cell-based, C57BL/6J mice; conditions: MuSCs isolated from NR-treated aged mice
Protocol: Myogenesis assay. Five MuSCs were sorted directly into wells of a Matrigel-coated 96-well cell culture plate, containing MuSC growth medium (F10, 20% FBS, 2.5 ng/ml bFGF, 1×pen/strep), using the automated cell deposition unit (ACDU) of the FACSAria II instrument (BD Biosciences). Cells were cultured at 37° C. for 5 days. Cell colony formations were counted using the DM IL LED Inverted Microscope (Leica) after fixation in freshly made or defrosted 4% paraformaldehyde (PFA) for 10 min.

MuSCs [3] = assay: Gene expression analyses (qPCR) in freshly isolated MuSCs of NR-treated mice; format: cell-based, C57BL/6J mice
Protocol: Gene expression analyses. Total RNA was extracted from MuSCs by sorting cells directly into TriPure RNA isolation reagent (Roche) or from cultured C2C12 myoblasts using TriPure reagent according to the product manual. Total RNA was transcribed to cDNA using QuantiTect Reverse Transcription Kit (Qiagen). Expression of selected genes was analyzed using the LightCycler480 system (Roche) and LightCycler® 480 SYBR Green I Master reagent (Roche). The acidic ribosomal protein 36b4 gene (ribosomal protein, large, P0, Rp1p0) was used as housekeeping reference. FACS based muscle stem cell isolation. Gastrocnemius, soleus, quadriceps, and tibialis anterior muscles from both limbs were excised and transferred into PBS on ice. All muscles were trimmed, minced and digested with 0.1 mg/ml of type II collagenase (Sigma) in PBS for 15 min at 37° C. Samples were then centrifuged at 750 g for 5 min and further digested in 1 mg/ml of collagenase/dispase (Roche) for 30 mins at 37° C. Muscle slurries were sequentially filtered through 100, 70 and 40 μm cell strainers. The isolated cells were then washed in washing buffer (PBS+2.5% FBS) then resuspended in 200 μl of washing buffer and immediately stained with antibodies, including the MuSC markers CD31 (1:800, eBioscience, eFluor450 conjugated); CD34 (1:200, eBioscience, eFluor660 conjugated); CD45 (1:200, eBioscience, eFluor450 conjugated); CD11b (1:400, eBioscience, eFluor450 conjugated); Sca-1 (1:1000, eBioscience, PE-Cy7 conjugated); and α7 integrin (1:300, MBL) for 30 min at 4° C. Secondary staining was performed with a mixture of goat anti-mouse antibody (1:800, Life technologies, Alexa Fluor 488 conjugated) and propidium Iodide (PI, Sigma) for 15 min at 4° C. in the dark. Stained cells were analysed and sorted using the FACSAria II instrument (BD Biosciences). Debris and dead cells were excluded by forward scatter, side scatter and PI gating. Cells were sorted either directly on slides for immunostaining and into TriPure (Roche) reagent for RNA extraction.

[4] = freshly isolated aged MuSCs, NR diet, FIG. 4H

SMILES: NC(=O)c1ccc[n+]([C@@H]2O[C@H](CO)[C@@H](O)[C@H]2O)c1 [NR, nicotinamide riboside]
- MuSC numbers (FACS) ([1]; aged mice): attenuated the loss of MuSC numbers during aging
- MuSC numbers by PAX7 staining of TA muscle ([1]; aged mice, NR diet, FIG. 3D): increase in aged MuSC numbers was confirmed
- MuSC numbers (FACS) ([1]; young mice): evoking gains in younger mice
- maximal running distances (Endurance running test; FIG. 3E): improvements
- maximal running times (Endurance running test; FIG. 3F): improvements
- myogenic colony formation (proliferation ability) (MuSCs [2]): enhanced potential to form myogenic colonies
- mitochondrial TCA and OXPHOS gene expression (MuSCs [3]; aged MuSCs, NR diet, FIG. 4I): largely rescued
- expression of cell cycle related genes (MuSCs [3]; [4]): increasing the expression of cell cycle related genes
- mRNA levels of CDKN1A and related senescence indicators (MuSCs [3]; [4]): significantly reduced
- Phb1 and Phb2 expression (MuSCs [3]; young and aged MuSCs, NR 400 mg/kg/day 6 weeks, FIG. 5B): induced Phb1 and Phb2 expression
